Laboratory results as given in PubChem BioAssay AID1996.
In brackets after ≈: the same amount, converted by molar mass.

Details: buffer; pH 7.4; 200.0 µM

| SMILES | solubility kinetic |
| --- | --- |
| Cc1c(Cl)cccc1NC(=S)NC1CCCC1 | 0.0075 mg/mL (≈ 27.9 µM) |
| O=C(Nc1ccc(F)c([N+](=O)[O-])c1)C(=O)c1c(O)[nH]c2ccccc12 | > 0.0515 mg/mL |
| COc1cc(C(=O)O/N=C2\C=CC(=O)C(C)=C2)cc(OC)c1OC | > 0.0497 mg/mL |
| Cc1ccc(N2C(=O)c3ccccc3C2=O)cc1 | 0.0027 mg/mL (≈ 11.4 µM) |
| Cn1cccc1/C=C1/C(=O)NC(=O)N(C(C)(C)C)C1=O | 0.0371 mg/mL (≈ 135 µM) |
| O=C(Nc1ccccc1)/C(=C\c1ccccc1)NC(=O)c1ccco1 | 0.0007 mg/mL (≈ 2.11 µM) |
| CC1CCN(S(=O)(=O)c2ccc([N+](=O)[O-])cc2)CC1 | 0.0032 mg/mL (≈ 11.3 µM) |
| CC1CN(C2=NC(=O)/C(=C/c3ccncc3)S2)CC(C)O1 (centres undefined) | > 0.0455 mg/mL |
| Cl.Nc1cnccc1Oc1cccc(C(F)(F)F)c1 | > 0.0436 mg/mL |
| CC(=O)c1c(N2CCOCC2)nc2ccc(Cl)cc2c1-c1ccccc1 | 0.0018 mg/mL (≈ 4.91 µM) |
| Cc1ccc(C(=O)OCC(=O)N(Cc2ccccc2)C(C)C)cc1C | 0.0168 mg/mL (≈ 49.5 µM) |
| C[C@H](NC(=O)N1CCC(Cc2ccccc2)CC1)C(=O)O | > 0.0436 mg/mL |
| COc1ccc(OC)c(C(=O)CN2C(=O)C(=O)N(C3CCCC3)C2=O)c1 | 0.0413 mg/mL (≈ 115 µM) |
| Cc1cccc(NC(=O)C2CCCN2C(=O)NC2CCCCC2)c1 (centres undefined) | 0.0031 mg/mL (≈ 9.41 µM) |
| CCN(C(=O)COC(=O)CCNS(=O)(=O)c1ccccc1F)c1c(N)n(Cc2ccccc2)c(=O)[nH]c1=O | > 0.0821 mg/mL |
| O=C(OCC(=O)N1CCN(c2ccccc2)CC1)c1ccc[n+]([O-])c1 | 0.0445 mg/mL (≈ 130 µM) |
| COc1cccc(C(N)=O)c1OC(=O)Cc1ccccc1F | > 0.0455 mg/mL |
| CC(C(=O)Nc1ccccc1)C(=O)Nc1ccccc1 | 0.0218 mg/mL (≈ 81.2 µM) |
| N#CCCN1CCN(S(=O)(=O)c2ccc3c(c2)CCC3)CC1 | > 0.0479 mg/mL |
| CC(C)(C)NC(=O)CSc1ncccc1-c1nc2ccccc2[nH]1 | 0.0033 mg/mL (≈ 9.69 µM) |

| SMILES | solubility kinetic |
| --- | --- |
| COc1ccc(-c2ncncc2-c2ccccc2)c(O)c1 | 0.0116 mg/mL (≈ 41.7 µM) |
| CCCc1cc(C(=O)Nc2cc(Cl)ccc2O)no1 | 0.0006 mg/mL (≈ 2.14 µM) |
| COc1ccc2c(c1)CCCC21NC(=O)N(CC(=O)N2CC(C)OC(C)C2)C1=O (centres undefined) | > 0.0602 mg/mL |
| CCOC(=O)C1=C(c2ccc(O)cc2)NC(=O)NC1C (centres undefined) | 0.037 mg/mL (≈ 134 µM) |
| CSc1ccccc1C(=O)OCC(=O)NCCN1C(=O)CSC1=O | > 0.0553 mg/mL |
| CN(C)C(=O)Oc1ccc2c(c1)O/C(=C\c1cccc(Cl)c1)C2=O | < 0.0007 mg/mL |
| NC(=O)COc1ccc(NC(=O)CC23CC4CC(CC(C4)C2)C3)cc1 | 0.0089 mg/mL (≈ 26 µM) |
| O=C(Nc1cccc2ccccc12)c1cccc(F)c1 | 0.0058 mg/mL (≈ 21.9 µM) |
| Cc1cccc2nc(-c3ccco3)c(Nc3ccccc3)n12 | 0.0029 mg/mL (≈ 10 µM) |
| O=C(COC(=O)c1ccc([N+](=O)[O-])o1)NCc1ccccc1 | > 0.0456 mg/mL |
| O=C1CC(/C=C/c2ccccc2)=Nc2ccccc2N1 | 0.0021 mg/mL (≈ 8.01 µM) |
| CC(=O)Nc1ccc(NC(=O)CSc2ccc([N+](=O)[O-])cn2)cc1 | 0.003 mg/mL (≈ 8.66 µM) |
| Cc1ccccc1C(=O)NC1CCCN(Cc2ccccc2F)C1 (centres undefined) | 0.0432 mg/mL (≈ 132 µM) |
| Fc1ccccc1Oc1nc(-c2ccncc2)nc2ccccc12 | < 0.0002 mg/mL |
| O=C(O)Cc1csc(-c2ccc(F)cc2)n1 | 0.0322 mg/mL (≈ 136 µM) |
| CC(=O)C1=NOC2C(=O)N(c3ccccc3)C(=O)C12 (centres undefined) | > 0.0387 mg/mL |
| COc1ccc(C2(C#N)CCC(=O)N2c2ccccc2)cc1 (centres undefined) | 0.0409 mg/mL (≈ 140 µM) |
| COc1ccccc1C(=O)NC(=O)CSc1ccc(C)c(C)c1 | 0.014 mg/mL (≈ 42.5 µM) |
| CCSCc1nc(N)nc(NCCc2ccccc2)n1 | 0.0347 mg/mL (≈ 120 µM) |
| Cc1cc(C)c2nc(NC(=O)c3ccco3)sc2c1 | 0.0004 mg/mL (≈ 1.47 µM) |

| SMILES | solubility kinetic |
| --- | --- |
| Cc1ccc(NC(=O)CSc2nnc(/N=C/N(C)C)s2)cc1 | > 0.0503 mg/mL |
| CC(=O)C1=C(O)C(=O)N(c2ccc(O)cc2)C1c1ccc(C)cc1 (centres undefined) | > 0.0485 mg/mL |
| CC(C)(C)SCCNC(=O)/C=C/c1ccccc1 | 0.0339 mg/mL (≈ 129 µM) |
| COC(=O)c1sccc1Oc1ccc(Cl)cc1N1C(=O)CCC1=O | 0.0485 mg/mL (≈ 133 µM) |
| CC(C)(C)c1cc(CCC(=O)NCC2CCCO2)cc(C(C)(C)C)c1O (centres undefined) | 0.0202 mg/mL (≈ 55.9 µM) |
| CN(Cc1ccccc1)/C(=N/O)c1cccc(Cl)c1 | 0.0264 mg/mL (≈ 96.1 µM) |
| O=C(COC(=O)c1ccc(O)cc1)Nc1ccc(S(=O)(=O)N2CCCC2)cc1 | > 0.0607 mg/mL |
| Cc1cccc(NC(=O)NC2CCCCCCC2)c1 | 0.0052 mg/mL (≈ 20 µM) |
| Cc1cc(C(=O)Nc2ccc(C(=O)O)cc2)c(C)o1 | > 0.0389 mg/mL |
| COc1cc2cc(C(=O)NCCc3ccccc3)[nH]c2cc1OC | 0.001 mg/mL (≈ 3.08 µM) |
| COC(=O)Cc1c(O)ccn(CCc2c[nH]c3ccc(OC)cc23)c1=O | > 0.0535 mg/mL |
| CN(C)S(=O)(=O)c1cccc(NC(=O)COc2ccc(S(=O)(=O)N3CCOCC3)cc2Cl)c1 | 0.0054 mg/mL (≈ 10.4 µM) |
| COc1ccccc1C(=O)N/C(=C\c1ccccc1)C(=O)NCc1ccco1 | > 0.0565 mg/mL |
| Nc1nc(NCCO)nc(NC2CCCCC2)c1[N+](=O)[O-] | 0.0391 mg/mL (≈ 132 µM) |
| Cc1cn(C2CCC(CO)O2)c(=O)[nH]c1=O (centres undefined) | > 0.0339 mg/mL |
| COCc1cc(Sc2ccc(Cl)cc2)nc(C)n1 | 0.0401 mg/mL (≈ 143 µM) |
| CCNC(=S)NC(=NCc1cccnc1)Nc1nc(C)cc(C)n1 | 0.0467 mg/mL (≈ 136 µM) |
| COc1cccc(C(=O)Nc2cccc(NC(=O)c3cccs3)c2)c1 | 0.0135 mg/mL (≈ 38.3 µM) |
| Cc1nn(CCCC(=O)Nc2cccnc2)c(C)c1[N+](=O)[O-] | > 0.0455 mg/mL |
